Source: patent US20090298781A1, “COMPOUNDS FOR THE INHIBITION OF APOPTOSIS” (CONSEJO SUPERIOR DE, priority 2005, published 2009)
Non-standard residues stand in square brackets, D forms with d. Residues, ends and D or L forms follow the SMILES beside them. *: point of attachment. X1 = O=C1CC(C(=O)*)N(CCC(c2ccccc2)c2ccccc2)C(=O)CN1CCc1ccc(Cl)cc1Cl; N(2,4-Cl2-phenethyl)Gly = O=C(O)CNCCc1ccc(Cl)cc1Cl

Biological target: T1, recombinant Apaf-1 (Homo sapiens, UniProt O14727)
T1 construct: made in house
T1 sequence (O14727 1-1248): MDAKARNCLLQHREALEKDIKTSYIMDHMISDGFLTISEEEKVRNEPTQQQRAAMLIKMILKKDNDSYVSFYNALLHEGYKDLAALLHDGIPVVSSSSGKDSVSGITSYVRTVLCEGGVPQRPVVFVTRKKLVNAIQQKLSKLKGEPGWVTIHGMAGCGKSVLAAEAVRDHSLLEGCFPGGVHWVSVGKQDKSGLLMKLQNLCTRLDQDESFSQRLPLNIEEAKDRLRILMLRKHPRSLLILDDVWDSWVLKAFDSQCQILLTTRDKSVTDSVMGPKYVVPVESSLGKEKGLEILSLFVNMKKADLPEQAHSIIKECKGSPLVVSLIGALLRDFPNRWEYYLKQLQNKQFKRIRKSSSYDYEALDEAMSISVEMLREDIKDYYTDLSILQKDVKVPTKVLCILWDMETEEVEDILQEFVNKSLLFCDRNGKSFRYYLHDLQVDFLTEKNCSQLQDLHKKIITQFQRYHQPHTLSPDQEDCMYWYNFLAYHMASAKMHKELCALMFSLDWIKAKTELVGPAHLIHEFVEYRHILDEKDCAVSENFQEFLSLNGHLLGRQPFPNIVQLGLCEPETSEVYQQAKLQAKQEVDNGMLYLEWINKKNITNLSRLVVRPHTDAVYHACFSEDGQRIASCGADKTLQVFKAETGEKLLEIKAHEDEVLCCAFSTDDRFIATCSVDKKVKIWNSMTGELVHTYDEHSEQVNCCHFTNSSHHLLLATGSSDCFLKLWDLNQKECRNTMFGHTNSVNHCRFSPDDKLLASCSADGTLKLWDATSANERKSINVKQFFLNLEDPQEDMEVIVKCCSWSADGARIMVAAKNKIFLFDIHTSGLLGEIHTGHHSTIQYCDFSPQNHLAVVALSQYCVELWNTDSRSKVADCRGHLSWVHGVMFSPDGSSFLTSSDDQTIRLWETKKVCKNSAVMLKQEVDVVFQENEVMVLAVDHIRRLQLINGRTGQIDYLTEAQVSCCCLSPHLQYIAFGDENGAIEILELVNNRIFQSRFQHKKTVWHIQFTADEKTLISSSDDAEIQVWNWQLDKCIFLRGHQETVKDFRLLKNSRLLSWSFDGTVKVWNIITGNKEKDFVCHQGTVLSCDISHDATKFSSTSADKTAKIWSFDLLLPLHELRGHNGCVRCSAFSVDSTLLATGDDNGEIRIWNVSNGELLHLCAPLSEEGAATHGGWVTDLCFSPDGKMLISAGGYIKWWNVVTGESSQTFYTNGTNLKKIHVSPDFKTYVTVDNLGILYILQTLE
Experiment: Cell-free caspase inhibition assay, Hek-293 FT cytoplasmatic fraction with recombinant Apaf-1
Type: biochemical
Settings: Hek-293 FT fraction + recombinant Apaf-1 (FIG. 1), read-out: IC50, concentration needed to inhibit 50% of caspase activity
Experimental: The activity of the compounds regards their specific target within the apoptotic machinery was assessed. Apaf-1 oligomerisation is a molecular event that leads to the activation of the apoptosome formation, which ends up in the induction of apoptosis. These experiments were performed in cell-free and in cellular assays.
For the cell-free assays, Hek-293 cytoplasmatic extracts were prepared as described before (Malet et al, 2005) and a partitioning of the complete cell extract was carried out. Concomitantly, recombinant Apaf-1 was purified according to Malet et al, 2005. The FT fraction (containing caspase-3 and -9 but lacking Apaf-1), was incubated with recombinant Apaf-1 in the presence of different concentrations of the compounds (see FIG. 1). The activity of the compounds was analysed by the inhibition of caspase activity (see above).
FIG. 1: Cell-free caspase inhibition assay using Hek-293 FT cytoplasmatic fraction incubated with recombinant Apaf-1 in the presence of different concentrations the compound IIa.1.

NCCCC[C@H](NC(=O)CNC(=O)CNC(=O)CN(CCc1ccc(Cl)cc1Cl)C(=O)C1CC(=O)N(CCc2ccc(Cl)cc2Cl)CC(=O)N1CCC(c1ccccc1)c1ccccc1)C(N)=O (stereo partly shown) [IIa.1, 1-[2-(2,4-Dichlorophenyl)ethyl]-3-(3,3-diphenyl-propyl)-3,7-dioxo[1,4]diazepane-5-carboxylic acid {[({[(5-amino-1-carbamoylpentylcarbamoyl)methyl]-carbamoyl}methyl)carbamoyl]methyl}-[2-(2,4-dichlorophenyl)ethyl]amide] (X1-[N(2,4-Cl2-phenethyl)Gly]GGK-NH2)
IC50: ~30 µM
